Measurements published in publication PMC8197855, “Peptide/β-Peptoid Hybrids with Activity against Vancomycin-Resistant Enterococci: Influence of Hydrophobicity and Structural Features on Antibacterial and Hemolytic Properties” (International Journal of Molecular Sciences, 2021).
Values after ≈ are worked out from the molar mass of the structure shown. Values joined by “and” are separate entries in the source; they are usually repeats but may differ in a detail not shown here. Identical values can stand only once.

Assays:
E. faecium ATCC 19434 [1] = assay: Broth checkerboard assay with conventional antibiotics; format: cell-based, Enterococcus faecium; conditions: antibiotic alone (-); BHI broth
Method: (§1) The strain culture preparation and final volume were the same as in the MIC assay. […] The plates were incubated for 24 h at 37 °C without shaking. […] All experiments were performed in two biological replicates.
(§2) To evaluate the effect of the combinations, the fractional inhibitory concentration index (FICI) was calculated for each combination according to:ΣFIC = FICA + FICB = (CA/MICA) + (CB/MICB)
(§3) The drug interaction was scored as follows: synergy—FICI ≤ 0.5; no interaction—FICI > 0.5–4; antagonism—FICI > 4 [40].

E. faecalis ATCC 29212 [2] = assay: as above; format: cell-based, Enterococcus faecalis; conditions: antibiotic alone (-); BHI broth
Method: as §1, §2, §3

E. faecium 1798 = assay: microbe, parasite or virus in culture; format: cell-based, Enterococcus faecium; conditions: 1798, 24 h
Method: (§4) Overnight cultures of the enterococcal isolates were diluted in physiological saline (0.9% NaCl) to reach a turbidity of 0.5 McFarland units (Sensititre® nephelometer and the Sensititre® McFarland Standard). Bacterial suspensions were adjusted to 5 × 10^5 CFU/mL in MHB II or BHI broth containing two-fold dilutions of peptidomimetics or conventional antibiotics in a final volume of 100 µL. The plates were incubated for 24 h at 37 °C without shaking. […] All experiments were performed in three biological replicates.

E. faecium 2961 = assay: microbe, parasite or virus in culture; format: cell-based, Enterococcus faecium; conditions: 2961, 24 h
Method: as §4

E. faecium 3978 = assay: microbe, parasite or virus in culture; format: cell-based, Enterococcus faecium; conditions: 3978, 24 h
Method: as §4

E. faecium D344R = assay: microbe, parasite or virus in culture; format: cell-based, Enterococcus faecium; conditions: E. faecium D344R, human clinical isolate; 24 h
Method: as §4

E. faecium ATCC 19434 [3] = assay: microbe, parasite or virus in culture; format: cell-based, Enterococcus faecium; conditions: ATCC 19434, 24 h
Method: as §4, with “replicates. […]” for “replicates.”

E. faecalis ATCC 29212 [4] = assay: microbe, parasite or virus in culture; format: cell-based, Enterococcus faecalis; conditions: ATCC 29212, 24 h
Method: as §4, with “replicates. […]” for “replicates.”

[5] = Hydrophobicity by analytical RP-HPLC (% MeCN at peak elution); format: physicochemical
Method: Water was filtered by using an Evoqua LaboStar PRO TWF Ultra Pure Water System prior to use in high-performance liquid chromatography (HPLC). The retention time for each peptidomimetic was determined by analytical HPLC using a Phenomenex Luna C18(2) HST column (100 mm × 3 mm; particle size: 2.5 μm; pore size: 100 Å) on a Shimadzu Prominence and Shimadzu Nexera system using an aqueous MeCN gradient with 0.1% trifluoroacetic acid (TFA) added (eluent A: 5:95 MeCN–H2O + 0.1% TFA; eluent B: 95:5 MeCN–H2O + 0.1% TFA); a flow rate of 0.5 mL/min was used. For the elution of peptidomimetics, a linear gradient of 0% to 60% B over 10 min was used with UV detection at λ = 220 nm. The percentage MeCN at peak elution was calculated from the retention time (tR) by using the following formula:%MeCN = [0.95 × 0.6 × tR/10 + 0.05 × (1 − 0.6 × tR/10)] × 100%

Hemolytic activity = format: cell-based, human; conditions: human, human red blood cells (washed, 1% suspension), 37 °C, 1% red blood cell suspension
Method: A suspension of hRBCs (Single-donor human red blood cells—washed; catalogue No. IPLA-W3 from Innovative researchTM) was washed three times with PBS buffer and centrifuged for 5 min at 2500 rpm. A two-fold serial dilution of compounds in PBS buffer was prepared. Plates (conical-bottomed 96-well plates) with 3 replicate wells per dilution, containing 1% red blood cell suspension, were prepared and dosed with the test compound to achieve a final concentration of 400 μg/mL in a total volume of 100 μL. The plates were incubated (37 °C) for 60 min with mild agitation, and then the cells were pelleted by centrifugation at 1500 rpm for 5 min. Then, the supernatants (50 μL) were transferred to a fresh 96-well plate, and then the concentration of hemoglobin was detected by measuring the OD at 405 nm. The OD of cells incubated with 1% SDS achieved 100% hemolysis, while the OD of cells incubated with PBS buffer achieved 0% hemolysis. The concentration tested was 400 μg/mL (only average values are stated in Table 3). The percent hemolysis was calculated by using the formula:Hemolysis(%) = 100 × [(Asample − Aneg.control)/(Apos. control − Aneg.control)]

[6] = test system: HepG2 cell line ATCC HB-8065; assay: Effect on HepG2 cell viability (MTT assay); format: cell-based, human; conditions: 48 h
Method: The effect of peptidomimetics on mammalian cell viability was determined on the HepG2 cell line ATCC HB-8065. In brief, HepG2 cells were seeded into flat-bottom 96-well plates at a concentration of 5000 cells per well. The cells were incubated for 24 h in a humidified incubator (5% CO2, 37 °C). Subsequently, the medium was removed, and the cells were incubated for 48 h in a humidified incubator (5% CO2, 37 °C) with peptidomimetics in serial dilutions. An MTT assay was then performed; in brief, after incubation with the test compounds, the culture medium was removed and fresh medium with 0.2 mg/mL MTT was then added into each well. After incubation (3 h, 37 °C, 5% CO2), the medium with MTT was removed, and 200 μL dimethyl sulfoxide was added at once to each sample. The absorbance of MTT was measured using the spectrophotometer TECAN Infinite M1000 at 540 nm. The relative viability was calculated by using the formula:ODtreated cells × 100/ODcontrol cells
The IC50 values were calculated using the program Graph Pad Prism 5.0. For all compounds, the test range was 10–1280 μg/mL.

E. faecium isolates = format: cell-based, Enterococcus faecium; conditions: 24 h
Method: as §4

E. faecalis 38262 = assay: microbe, parasite or virus in culture; format: cell-based, Enterococcus faecalis; conditions: 38262, 24 h
Method: as §4

E. faecalis 39002 = assay: microbe, parasite or virus in culture; format: cell-based, Enterococcus faecalis; conditions: 39002, 24 h
Method: as §4

`CO[C@H]1/C=C/O[C@@]2(C)Oc3c(C)c(O)c4c(O)c(c(/C=N/N5CCN(C)CC5)c(O)c4c3C2=O)NC(=O)/C(C)=C\C=C\[C@H](C)[C@H](O)[C@@H](C)[C@@H](O)[C@@H](C)[C@H](OC(C)=O)[C@@H]1C` [Rifampicin, rifampicin] showed an MIC of antibiotic (E. faecium ATCC 19434 [1]) of 8 µg/mL and an MIC of antibiotic (E. faecalis ATCC 29212 [2]) of 1 µg/mL.

In the case of `CC[C@H]1OC(=O)[C@H](C)[C@@H](O[C@H]2C[C@@](C)(OC)[C@@H](O)[C@H](C)O2)[C@H](C)[C@@H](O[C@@H]2O[C@H](C)C[C@H](N(C)C)[C@H]2O)[C@](C)(O)C[C@@H](C)CN(C)[C@H](C)[C@@H](O)[C@]1(C)O` [Azithromycin, azithromycin], the MIC of antibiotic (E. faecium ATCC 19434 [1]) is reported as 4 to 8 µg/mL and the MIC of antibiotic (E. faecalis ATCC 29212 [2]) is reported as 1 to 2 µg/mL.

For `C[C@@H](c1ccccc1)N(CCC(N)=O)C(=O)[C@H](CCCCN)NC(=O)CCN(C(=O)[C@H](CCCCNC(=N)N)NC(=O)CCN(C(=O)[C@H](CCCCN)NC(=O)CCN(C(=O)[C@H](CCCCNC(=N)N)NC(=O)CCN(C(=O)[C@H](CCCCN)NC(=O)CCN(C(=O)[C@H](CCCCNC(=N)N)NC(=O)CNCCCNCCCCNCCCN)[C@@H](C)c1ccccc1)[C@@H](C)c1ccccc1)[C@@H](C)c1ccccc1)[C@@H](C)c1ccccc1)[C@@H](C)c1ccccc1` [Compound 3, SpermineAc-[hArg-βNspe-Lys-βNspe]3-NH2], the Minimum inhibitory concentration (E. faecium 1798) was 4 to 8 µg/mL, the Minimum inhibitory concentration (E. faecium 2961) was 8 µg/mL (≈ 3.63 µM) and the Minimum inhibitory concentration (E. faecium 3978) was 8 µg/mL (≈ 3.63 µM). For the same compound, the Minimum inhibitory concentration (E. faecium D344R) was 4 to 8 µg/mL, the Minimum inhibitory concentration (E. faecium ATCC 19434 [3]) was 16 to 32 µg/mL and the Minimum inhibitory concentration (E. faecalis ATCC 29212 [4]) was >32 µg/mL. For the same compound, the “Hydrophobicity, Luna C18(2) HST (0–60% B; 10 min), retention converted into % MeCN” value [5] was 40 % MeCN and 40.2 % MeCN, the hemolysis at 60 min, 400 µg/mL (Hemolytic activity) was 0.6% and the “HepG2 IC50” value [6] was 41 µg/mL. The “MIC (range or typical value) against E. faecium” value (E. faecium isolates) was 4 to 8 µg/mL.

For `CC(=O)NC[C@H]1CN(c2ccc(N3CCOCC3)c(F)c2)C(=O)O1` [Linezolid, linezolid], the MIC of antibiotic (E. faecium ATCC 19434 [1]) was 2 µg/mL and the MIC of antibiotic (E. faecalis ATCC 29212 [2]) was 2 µg/mL.

Work on `CCCCCCCCCCCC(=O)N[C@@H](CCCCN)C(=O)N(CCC(=O)N[C@@H](CCCCN)C(=O)N(CCC(=O)N[C@@H](CCCCN)C(=O)N(CCC(=O)N[C@@H](CCCCN)C(=O)N(CCC(=O)N[C@@H](CCCCN)C(=O)N(CCC(=O)N[C@@H](CCCCN)C(=O)N(CCC(N)=O)Cc1ccccc1)Cc1ccccc1)Cc1ccccc1)Cc1ccccc1)Cc1ccccc1)Cc1ccccc1` [Compound 11, Lau-[Lys-βNPhe]6-NH2] yielded a Minimum inhibitory concentration (E. faecium 1798) of 2 to 4 µg/mL, a Minimum inhibitory concentration (E. faecium 2961) of 2 to 4 µg/mL and a Minimum inhibitory concentration (E. faecium 3978) of 2 to 4 µg/mL. The Minimum inhibitory concentration (E. faecium D344R) was 2 to 4 µg/mL, the Minimum inhibitory concentration (E. faecium ATCC 19434 [3]) was 4 µg/mL (≈ 2.07 µM) and the Minimum inhibitory concentration (E. faecalis ATCC 29212 [4]) was 4 µg/mL (≈ 2.07 µM). For the same compound, the Minimum inhibitory concentration (E. faecalis 38262) was 4 to 8 µg/mL, the Minimum inhibitory concentration (E. faecalis 39002) was 4 to 8 µg/mL and the “HepG2 IC50” value [6] was 22 µg/mL.
